Patent publication US20200216417A1, “INHIBITORS OF FIBROBLAST ACTIVATION PROTEIN” (Praxis Biotech LLC, priority 2019, published 2020)

Legend:
[1] = upon standing in pH 7.8; cyclization (Narra et al., 2007); cited from earlier work
[2] = tested on: human AML cell line MV4-11; experiment: Cytotoxicity assay in human leukemia cell lines (Cell-Titer Glo); conditions: MV4-11, 48 h, read-out: MV4-11 viability IC50, μM

Q: Which “stability of protease inhibitory activity” value [1] does the source give for CC(C)[C@H](N)C(=O)N1CCC[C@H]1B(O)O [Val-boroPro, reference compound] here?
A: rapidly loses protease inhibitory activity

Q: What about the IC50 [2] of the same molecule?
A: < 3 µM
